According to US20260347372A1, “SMALL MOLECULE INHIBITORS OF KRAS G12D MUTANT” (MERCK SHARP & DOHME LLC, priority 2023, published 2026):

Legend:
[1] = target: KRAS WT (Homo sapiens, UniProt P01116); assay: SOS-catalyzed nucleotide exchange assay, KRAS WT (Procedure A); format: biochemical; settings: GNE
How it was run: (§1)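 Preformed TR-FRET complex of biotinylated KRAS (G12C carries C51S/C80L/C118S; others native sequence), Bodipy-GDP and Tb-streptavidin preincubated with compound 60 min at room temperature. Exchange started with human SOS plus 3 mM GTP for 60 min (G13D 30 min). Final RAS/SOS: G12C 3/40 nM; WT, G12D 1/40 nM; G13D 1.25/0 nM. 520/495 nm ratio normalised, fitted to four-parameter logistic.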

[2] = target: KRAS G13D (Homo sapiens, UniProt P01116, G13D); assay: SOS-catalyzed nucleotide exchange assay, KRAS G13D (Procedure A); format: biochemical; settings: GNE
How it was run: as §1

[3] = target: T1, AsPC-1 cells (Homo sapiens, UniProt P01116, G12D); assay: Cellular phospho-ERK assay, AsPC-1 cells (KRAS G12D); format: cell-based; settings: 2 hours, read-out: AsPC1 pERK IC50
T1 construct: p-ERK/total ERK AlphaSureFire read-out
How it was run: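 PANC08.13 or AsPC-1 cells (homozygous KRAS G12D) were seeded overnight, then treated for 2 h at 37 °C with a 10-point 1:3 titration from 30 μM. Lysates were assayed by AlphaLISA SureFire for p-ERK and total ERK. IC50 came from a 4-parameter fit of the p-ERK/total ERK ratio.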

[4] = target: T2, PANC08.13 cells (Homo sapiens, UniProt P01116, G12D); assay: Cellular phospho-ERK assay, PANC08.13 cells (KRAS G12D); format: cell-based; settings: 2 hours, read-out: PANCO 813 pERK IC50
T2 construct: p-ERK/total ERK AlphaSureFire read-out
Experimental: Procedure for Cellular Phospho-ERK Assay in KRAS Wild Type and Mutant (G12D, G12V) Cell Lines
PANC08.13 cells (ATCC® CRL-2551™), containing homozygous KRAS-G12D activating mutation, were cultured in growth medium made of RPMI1640-GlutaMAX™-I (ThermoFisher Scientific 61870) containing 15% heat inactivated fetal bovine serum (ThermoFisher Scientific 10091148)). AsPC-1 cells (ATCC® CRL-1682™), containing homozygous KRAS-G12D activating mutation, were cultured in T150 flask in growth medium (RPMI medium 1640-GlutaMAX™-I (ThermoFisher Scientific 61870) containing 10% fetal bovine serum (ThermoFisher Scientific 10091148)).
Cells for the assay were harvested in growth medium after TrypLE (ThermoFisher scientific 12604021) digestion and were seeded in a 384-well collagen coated cell culture plate (Corning 356702) at a density of 10,000-15,000 cells/20 μL/well, and incubated at 37° C., 5% CO2 overnight. The compound (with 10 mM stock concentration) dose-response titrations were prepared [30 μM final ERK detection assay concentration and 1:3 dilutions, 10-point dose response] and appropriate amounts (270 nL) of test compounds were dispensed in a 384-well intermediate plate using an Echo 550 liquid handler. 30 μL/well of RPMI medium 1640-GlutaMAX™-I was added to the intermediate plate and the contents of the intermediate plate (10 μL/well) were then transferred to the 384-well collagen coated cell culture plate, which was incubated at 37° C., 5% CO2 for 2 hours. After removal of medium from the collagen coated cell culture plate, cells were lysed in lysis buffer from Alpha SureFire® Ultra™ Multiplex p-ERK and total ERK assay kit (PerkinElmer MPSU-PTERK) containing Halt™ Protease and Phosphatase inhibitor cocktail (ThermoFisher Scientific 78446) at room temperature with constant shaking at 300 rpm for 30 minutes. The cell lysates were then transferred to an OptiPlate-384 plate (PerkinElmer 6005620), and the phosphorylation of ERK (p-ERK) and total ERK levels were detected by Alpha SureFire® Ultra™ Multiplex p-EEK kit and total ERK assay kit (PerkinElmer MPSU-PTERK) following the manufacturer's protocol. Assay plates were read on a EnVision Multimode Plate Reader (PerkinElmer), and the ratio of p-ERK vs. total ERK in each well was used as the final readout. Dose response curves were analyzed using a 4-parameter logistic model to calculate IC50 values using Spotfire software.

[5] = target: KRAS G12D (Homo sapiens, UniProt P01116, G12D); assay: SOS-catalyzed nucleotide exchange assay, KRAS G12D (Procedure A); format: biochemical; settings: guanine nucleotide exchange (GNE)
How it was run: as §1

[6] = target: NRAS (Homo sapiens, UniProt P01111); assay: SOS-catalyzed nucleotide exchange assay, NRAS (Procedure A); format: biochemical; settings: GNE
How it was run: (§2)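 Compounds were preincubated 60 min with a biotinylated RAS·Bodipy-GDP/Tb-streptavidin TR-FRET complex, and exchange was started with human SOS plus 3 mM GTP at RT. RAS/SOS: G12C 3 nM/40 nM, WT and G12D 1 nM/40 nM, all 60 min; G13D 1.25 nM/0 nM, 30 min. 520/495 ratio normalized to DMSO and saturating inhibitor, four-parameter fit.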

[7] = target: KRAS G12V (Homo sapiens, UniProt P01116, G12V); assay: SOS-catalyzed nucleotide exchange assay, KRAS G12V (Procedure A); format: biochemical; settings: GNE
How it was run: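 Biotinylated KRAS G12V was loaded with Bodipy-GDP alongside Terbium-streptavidin to form a TR-FRET complex, which was preincubated with compounds for 60 minutes in 384-well plates. Human SOS protein and unlabeled GTP were then added for 90 minutes, giving final concentrations of 1.25 nM KRAS-G12V, 160 nM SOS and 3 mM GTP. The 520/495 nm emission ratio was read on an Envision.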

[8] = target: KRAS G12C (Homo sapiens, UniProt P01116, C118S/C51S/C80L/G12C); assay: SOS-catalyzed nucleotide exchange assay, KRAS G12C (Procedure A); format: biochemical; settings: GNE
How it was run: as §1

[9] = target: HRAS (Homo sapiens, UniProt P01112); assay: SOS-catalyzed nucleotide exchange assay, HRAS (Procedure A); format: biochemical; settings: GNE
How it was run: as §2

Sequence of KRAS G12V (P01116 with tags, fused parts or gaps isoform P01116-2 G12V): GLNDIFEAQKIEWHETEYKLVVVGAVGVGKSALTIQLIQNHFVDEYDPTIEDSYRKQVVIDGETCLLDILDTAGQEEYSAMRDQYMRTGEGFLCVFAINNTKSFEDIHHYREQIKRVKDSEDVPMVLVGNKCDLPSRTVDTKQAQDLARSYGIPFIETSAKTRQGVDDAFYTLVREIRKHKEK
T2 sequence (P01116 1-188 isoform P01116-2 G12D): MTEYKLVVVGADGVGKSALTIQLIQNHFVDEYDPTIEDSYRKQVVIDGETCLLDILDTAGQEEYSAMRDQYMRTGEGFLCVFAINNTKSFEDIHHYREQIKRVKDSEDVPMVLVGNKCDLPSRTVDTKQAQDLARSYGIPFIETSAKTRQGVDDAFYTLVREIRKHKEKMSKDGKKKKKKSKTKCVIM
T1 sequence (P01116 1-188 isoform P01116-2 G12D): as above
Sequence of KRAS G13D (P01116 with tags, fused parts or gaps isoform P01116-2 G13D): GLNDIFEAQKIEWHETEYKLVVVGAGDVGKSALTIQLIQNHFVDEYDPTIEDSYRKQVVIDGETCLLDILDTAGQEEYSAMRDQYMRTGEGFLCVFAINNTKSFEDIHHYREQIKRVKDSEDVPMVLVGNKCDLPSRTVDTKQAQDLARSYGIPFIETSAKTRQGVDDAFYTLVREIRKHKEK
Sequence of KRAS G12D (P01116 with tags, fused parts or gaps isoform P01116-2 G12D): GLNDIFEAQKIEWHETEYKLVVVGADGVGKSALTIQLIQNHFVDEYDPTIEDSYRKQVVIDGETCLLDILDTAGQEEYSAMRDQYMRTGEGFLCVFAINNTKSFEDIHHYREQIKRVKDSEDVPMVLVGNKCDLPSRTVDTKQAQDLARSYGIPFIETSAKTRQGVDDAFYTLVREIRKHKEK
Sequence of HRAS (P01112 with tags, fused parts or gaps): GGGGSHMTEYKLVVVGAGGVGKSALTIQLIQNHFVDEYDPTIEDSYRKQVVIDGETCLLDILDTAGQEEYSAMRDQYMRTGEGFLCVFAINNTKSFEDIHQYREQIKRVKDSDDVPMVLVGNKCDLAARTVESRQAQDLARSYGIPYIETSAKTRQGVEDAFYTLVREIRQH
Sequence of NRAS (P01111 with tags, fused parts or gaps): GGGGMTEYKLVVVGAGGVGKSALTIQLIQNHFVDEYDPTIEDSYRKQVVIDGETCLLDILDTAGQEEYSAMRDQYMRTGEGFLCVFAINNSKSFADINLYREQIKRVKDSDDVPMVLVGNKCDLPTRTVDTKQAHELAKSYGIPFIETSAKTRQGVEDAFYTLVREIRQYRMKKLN
Sequence of KRAS WT (P01116 with tags, fused parts or gaps isoform P01116-2): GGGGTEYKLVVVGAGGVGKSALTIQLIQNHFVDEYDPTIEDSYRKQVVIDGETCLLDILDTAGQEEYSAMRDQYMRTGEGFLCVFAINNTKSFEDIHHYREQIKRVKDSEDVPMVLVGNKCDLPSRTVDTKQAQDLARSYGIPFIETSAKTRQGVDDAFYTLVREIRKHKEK
Sequence of KRAS G12C (P01116 with tags, fused parts or gaps isoform P01116-2 G12C/C51S/C80L/C118S): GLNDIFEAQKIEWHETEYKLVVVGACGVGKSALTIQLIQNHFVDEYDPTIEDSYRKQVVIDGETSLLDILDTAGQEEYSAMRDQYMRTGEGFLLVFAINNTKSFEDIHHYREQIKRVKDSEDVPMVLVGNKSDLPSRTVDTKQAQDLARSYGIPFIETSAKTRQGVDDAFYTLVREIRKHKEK

Row | Compound | IC50 [1] [µM] | IC50 [2] [µM] | IC50 [3] [µM] | IC50 [4] [µM] | IC50 [5] [µM] | IC50 [6] [µM] | IC50 [7] [µM] | IC50 [8] [µM] | IC50 [9] [µM]
1 | Cc1cc2[nH]nc(C#N)c2c(-c2nccc3c4c(N5C[C@H]6CC[C@@H](C5)N6)nc(OC[C@@]56CCCN5C[C@H](F)C6)nc4n(C)c23)c1C(F)(F)F (single isomer, unassigned) [Ex-2] | > 11.1 | 2.36 | 15.1 | 1.63 | 0.0436 | > 11.1 | > 11.1 | > 11.1 | > 11.1
2 | FC(F)c1c(Cl)cc2[nH]ncc2c1-c1nccc2c1sc1nc(OC[C@@]34CCCN3C[C@H](F)C4)nc(N3C[C@H]4CC[C@@H](C3)N4)c12 [Ex-13, 4-((1R,5S)-3,8-diazabicyclo[3.2.1]octan-3-yl)-8-(6-chloro-5-(difluoromethyl)-1H-indazol-4-yl)-2-(((2R,7aS)-2-fluorotetrahydro-1H-pyrrolizin-7a(5H)-yl)methoxy)pyrido[4′,3′:4,5]thieno [2,3-d]pyrimidine] | 9.55 | 1.83 | 0.582 | 0.221 | 0.0137 | > 11.1 | 8.35 | 0.665 | > 11.1
3 | Cc1cc2[nH]ncc2c(-c2nccc3c4c(N5C[C@H]6CC[C@@H](C5)N6)nc(OC[C@@]56CCCN5C[C@H](F)C6)nc4n(C)c23)c1C(F)(F)F (single isomer, unassigned) [Ex-1] | 6.5 | 1.64 | 0.455 | 0.139 | 0.0143 | > 11.1 | 3.56 | 0.652 | > 11.1
4 | Cc1cc2[nH]nc(C#N)c2c(-c2nccc3c2sc2nc(OC[C@@]45CCCN4C[C@H](F)C5)nc(N4C[C@H]5CC[C@@H](C4)N5)c23)c1C(F)(F)F [Ex-19, 4-(4-((1R,5S)-3,8-diazabicy-clo[3.2.1]oc-tan-3-yl)-2-(((2R,7aS)-2-fluoro-tetrahydro-1H-pyrrolizin-7a(5H)-yl)methoxy)pyri-do[4′,3′:4,5]thieno [2,3-d]pyrimidin-- 8-yl)-6-methyl-5-(trifluoromethyl)-- 1H-indazole-3-carbonitrile] | 9.94 | 1.05 | 2.2 | 0.25 | 0.0234 | > 11.1 | > 11.1 | 0.755 | > 11.1
5 | Cc1cc2[nH]ncc2c(-c2nccc3c2sc2nc(OC[C@@]45CCCN4C[C@H](F)C5)nc(N4C[C@H]5CC[C@@H](C4)N5)c23)c1C(F)(F)F [Ex-12, 4-((1R,5S)-3,8-diazabicyclo[3.2.1]octan-3-yl)-2-(((2R,7aS)-2-fluorotetrahydro-1H-pyrrolizin-7a(5H)-yl)methoxy)-8-(6-methyl-5-(trifluoromethyl)-1H-indazol-4-yl)pyrido[4′,3′:4,5]thieno[2,3-d]pyrimidine] | 5.81 | 0.723 | 0.2 | 0.0889 | 0.00641 | > 11.1 | 2.07 | 0.589 | > 11.1
6 | Cc1cc2[nH]ncc2c(-c2nccc3c4c(N5C[C@H]6CC[C@@H](C5)N6)nc(OC[C@@]56CCCN5C[C@H](F)C6)nc4n(C)c23)c1C(F)F (single isomer, unassigned) [Ex-3] | 9.31 | 3.32 | 0.965 | 0.244 | 0.0975 | > 11.1 | 5.14 | 0.919 | > 11.1
7 | Cc1cc2[nH]ncc2c(-c2nccc3c4c(N5CC[C@H]6NCC[C@H]65)nc(OC[C@@]56CCCN5C[C@H](F)C6)nc4n(C)c23)c1C(F)(F)F [Ex-66, 2-(((2R,7aS)-2-fluorotetrahydro-1H-pyrrolizin-7a(5H)-yl)methoxy)-4-((3aR,6aR)-hexahydropyrrolo[3,2-b]pyrrol-1(2H)-yl)-9-methyl-8-(6-methyl-5-(trifluoromethyl)-1H-indazol-4-yl)-9H-pyrido[4′,3′:4,5]pyrrolo[2,3-d]pyrimidine] | 6.33 | 1.5 | – | 1.26 | 0.202 | > 11.1 | > 11.1 | 1.69 | > 11.1
8 | Cn1c2nc(OC[C@@]34CCCN3C[C@H](F)C4)nc(N3C[C@H]4CC[C@@H](C3)N4)c2c2ccnc(-c3ccc(F)c4sc(N)c(C#N)c34)c21 [Ex-5, 4-(4-((1R,5S)-3,8-diazabicyclo[3.2.1]octan-3-yl)-2-(((2R,7aS)-2-fluorotetrahydro-1H-pyrrolizin-7a(5H)-yl)methoxy)-9-methyl-9H-pyrido[4′,3′:4,5]pyrrolo[2,3-d]pyrimidin-8-yl)-2-amino-7-fluorobenzo[b]thiophene-3-carbonitrile] | > 11.1 | 0.349 | – | 1.19 | 0.018 | > 11.1 | > 11.1 | > 11.1 | > 11.1
9 | C#Cc1cccc2cccc(-c3nccc4c5c(N6C[C@H]7CC[C@@H](C6)N7)nc(OC[C@@]67CCCN6C[C@H](F)C7)nc5n(C)c34)c12 [Ex-9, 4-((1R,5S)-3,8-diazabicyclo[3.2.1]octan-3-yl)-8-(8-ethynylnaphthalen-1-yl)-2-(((2R,7aS)-2-fluoro-tetrahydro-1H-pyrrolizin-7a(5H)-yl)methoxy)-9-methyl-9H-py-rido[4′,3′:4,5]pyrro-lo[2,3-d]pyrimidine] | – | 0.451 | 0.49 | 0.315 | 0.0407 | > 11.1 | – | 1.55 | > 11.1
10 | C#Cc1cccc2cccc(-c3nccc4c3sc3nc(OC[C@@]56CCCN5C[C@H](F)C6)nc(N5C[C@H]6CC[C@@H](C5)N6)c34)c12 [Ex-10, 4-((1R,5S)-3,8-diaza-bicyclo[3.2.1]oc-tan-3-yl)-8-(8-ethynylnaphthalen-1-yl)-2-(((2R,7aS)-2-fluoro-tetrahydro-1H-pyrrolizin-7a(5H)-yl)methoxy)pyri-do[4′,3′:4,5]thi-eno[2,3-d]py-rimidine] | 4.93 | 0.604 | 0.398 | 0.192 | 0.00711 | > 11.1 | 6.88 | 0.647 | > 11.1
